From patent US9809623B2, “α4β7 peptide monomer and dimer antagonists” (Protagonist Therapeutics, Inc., priority 2014, dated 2017)
Numbered stars: 1 amine (or outer) side, 2 acyl side, 3 side chain; on linkers, the order of the positions; unused ones are H or OH. Bridge positions count the residues as written; N and C are the ends. Square brackets hold non-standard residues; d marks the D form. Peptide text beside a SMILES is read from it. I, II: the chains in the order shown. Bip = N[C@@H](Cc1ccc(-c2ccccc2)cc1)C(=O)O; 1Nal = N[C@@H](Cc1cccc2ccccc12)C(=O)O; 2Nal = N[C@@H](Cc1ccc2ccccc2c1)C(=O)O; Diglycolyl = O=C(COCC(=O)[*:2])[*:1]; NMeR = CN[C@@H](CCCNC(=N)N)C(=O)O; β3hE = N[C@@H](CCC(=O)O)CC(=O)O; NMeK = CN[C@@H](CCCCN)C(=O)O; Pen = CC(C)(S)[C@H](N)C(=O)O; dNMeK = CN[C@H](CCCCN)C(=O)O

Tests used:
rh integrin α4β7 = molecular target: T1, rh integrin α4β7 (Homo sapiens, UniProt P13612+P26010); test: α4β7-MAdCAM Competition ELISA; assay type: binding; settings: Table 3-B, Potency (α4β7); range classes; read-out: α4β7 ELISA IC50
T1 construct: purchased R&D Systems 5397-A30
T1 sequence (P13612 34-977 limits assumed): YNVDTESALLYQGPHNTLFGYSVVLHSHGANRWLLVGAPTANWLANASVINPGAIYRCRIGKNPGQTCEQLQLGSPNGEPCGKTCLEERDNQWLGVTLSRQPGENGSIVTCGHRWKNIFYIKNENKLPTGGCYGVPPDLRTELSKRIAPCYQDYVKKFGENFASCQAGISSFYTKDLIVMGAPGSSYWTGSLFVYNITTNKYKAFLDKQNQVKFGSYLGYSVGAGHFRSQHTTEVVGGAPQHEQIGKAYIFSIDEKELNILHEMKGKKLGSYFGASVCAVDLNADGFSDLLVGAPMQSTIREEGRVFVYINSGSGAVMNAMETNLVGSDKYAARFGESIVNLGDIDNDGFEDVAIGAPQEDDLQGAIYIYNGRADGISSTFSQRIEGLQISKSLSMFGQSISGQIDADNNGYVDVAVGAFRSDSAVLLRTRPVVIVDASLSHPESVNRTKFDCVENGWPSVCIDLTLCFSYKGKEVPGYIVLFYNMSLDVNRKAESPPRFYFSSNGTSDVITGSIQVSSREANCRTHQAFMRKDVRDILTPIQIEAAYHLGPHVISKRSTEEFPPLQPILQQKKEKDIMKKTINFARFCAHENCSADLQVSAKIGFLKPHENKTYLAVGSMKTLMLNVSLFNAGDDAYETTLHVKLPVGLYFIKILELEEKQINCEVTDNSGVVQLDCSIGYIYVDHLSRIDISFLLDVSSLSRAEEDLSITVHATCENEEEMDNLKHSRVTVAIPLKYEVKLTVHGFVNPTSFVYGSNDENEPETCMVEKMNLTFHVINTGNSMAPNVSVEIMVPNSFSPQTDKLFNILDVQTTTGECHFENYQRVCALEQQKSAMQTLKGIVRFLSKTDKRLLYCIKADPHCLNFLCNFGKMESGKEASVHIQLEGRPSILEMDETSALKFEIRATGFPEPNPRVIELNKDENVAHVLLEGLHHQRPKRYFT
T1 sequence (P26010 20-723 limits assumed): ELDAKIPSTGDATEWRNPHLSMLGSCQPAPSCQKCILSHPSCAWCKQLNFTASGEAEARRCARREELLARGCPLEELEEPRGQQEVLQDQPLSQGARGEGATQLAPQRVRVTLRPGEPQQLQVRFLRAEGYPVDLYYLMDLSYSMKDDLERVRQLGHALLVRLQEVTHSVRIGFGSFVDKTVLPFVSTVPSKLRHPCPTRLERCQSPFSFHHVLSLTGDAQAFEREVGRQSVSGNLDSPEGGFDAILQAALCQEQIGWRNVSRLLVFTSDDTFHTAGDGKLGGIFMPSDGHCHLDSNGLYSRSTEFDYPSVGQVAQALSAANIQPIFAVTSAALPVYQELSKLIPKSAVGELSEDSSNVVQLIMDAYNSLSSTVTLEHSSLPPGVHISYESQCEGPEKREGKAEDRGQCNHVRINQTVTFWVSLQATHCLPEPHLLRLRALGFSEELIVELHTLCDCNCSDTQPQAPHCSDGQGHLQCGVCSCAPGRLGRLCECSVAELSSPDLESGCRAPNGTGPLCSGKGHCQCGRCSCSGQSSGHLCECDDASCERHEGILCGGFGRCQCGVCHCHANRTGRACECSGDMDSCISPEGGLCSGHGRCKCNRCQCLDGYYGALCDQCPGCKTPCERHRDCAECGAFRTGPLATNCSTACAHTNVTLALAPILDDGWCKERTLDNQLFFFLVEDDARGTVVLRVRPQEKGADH
Method in brief: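 Recombinant human α4β7 was captured on nickel plates at 800 ng/well. Peptide in 3-fold serial dilution (final top 10 μM) competed with MAdCAM-1 (final 10 nM) for 1 h at room temperature in 50 mM Tris pH 7.6, 150 mM NaCl, 1 mM MnCl2 or MgCl2. Bound MAdCAM-1 was detected with anti-human IgG1-HRP/TMB at A450.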

α4β1 = molecular target: T2, α4β1 (Homo sapiens, UniProt P05556+P13612, DEL729-798); test: α4β1-VCAM Competition ELISA; assay type: binding; settings: Table 3-B, Selectivity (α4β1); range classes; read-out: α4β1 ELISA IC50
T2 construct: purchased R&D Systems 5668-A4
T2 sequence (P13612 34-977 limits assumed, stated change not applied): as the sequence (P13612 34-977 limits assumed) above
T2 sequence (P05556 21-728 limits assumed, stated change not applied): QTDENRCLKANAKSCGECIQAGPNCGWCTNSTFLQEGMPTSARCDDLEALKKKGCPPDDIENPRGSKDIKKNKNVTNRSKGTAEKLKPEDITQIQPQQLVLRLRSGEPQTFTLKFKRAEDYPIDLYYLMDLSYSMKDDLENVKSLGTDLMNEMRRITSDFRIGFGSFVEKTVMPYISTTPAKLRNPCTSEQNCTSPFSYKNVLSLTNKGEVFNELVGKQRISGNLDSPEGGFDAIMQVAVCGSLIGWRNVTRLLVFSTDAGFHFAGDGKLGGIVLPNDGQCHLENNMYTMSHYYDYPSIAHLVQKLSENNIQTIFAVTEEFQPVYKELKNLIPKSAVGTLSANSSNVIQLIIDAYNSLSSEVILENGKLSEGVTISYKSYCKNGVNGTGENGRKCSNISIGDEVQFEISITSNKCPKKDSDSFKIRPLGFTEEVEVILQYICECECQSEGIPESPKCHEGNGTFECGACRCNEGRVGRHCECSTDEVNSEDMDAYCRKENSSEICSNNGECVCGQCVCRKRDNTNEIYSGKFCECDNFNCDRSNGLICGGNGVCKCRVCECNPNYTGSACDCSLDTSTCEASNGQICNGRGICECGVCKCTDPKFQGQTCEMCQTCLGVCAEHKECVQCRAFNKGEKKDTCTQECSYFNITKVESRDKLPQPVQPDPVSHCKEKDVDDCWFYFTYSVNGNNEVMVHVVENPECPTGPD
Description: A Nunc MaxiSorp plate was coated with rh VCAM-1/CD106 Fc chimera (R&D #862-VC) at 400 ng/well in 50 ul per well in 1×PBS and incubated overnight at 4° C. The solution was removed by shaking and then blocked with 250 ul of 1% BSA in 1×PBS per well. The wells were then incubated at room temperature for 1 hr with shaking. Each well was then washed once with wash buffer (50 mM Tris-HCl pH7.6, 100 mM NaCL, 1 mM MnCl2 or MgCl2, 0.05% Tween-20). 25 ul of serial dilutions of peptides starting at 200 μM in assay buffer (Assay buffer: 50 mM Tris-HCl pH7.6, 100 mM NaCl, 1 mM MnCl2 or MgCl2, 0.05% Tween-20) was added to each well. Additionally, 25 ul of α4β1 (R&D Systems #5668-A4) was added to each well at a fixed concentration of 120 nM. The final peptide and α4β1 concentrations were 100 μM and 60 nM, respectively. The plates were then incubated at 37° C. for 2 hr. The solution was then removed by shaking, and each well was washed three times with wash buffer. 50 ul of 9F10 antibody at 4 ug/ml (purified mouse anti-human CD49d, BD Bioscience Cat#555502) was then added to each well, and the plate was incubated at room temperature for 1 hr with shaking. The solution was again removed by shaking, and each well was washed three times with wash buffer. 50 ul of peroxidase-conjugated AffiniPure Goat anti-mouse IgG (Jackson immune research cat #115-035-003) diluted in 1:5000 in assay buffer was added to each well. The plate was incubated at room temperature for 30 min with shaking. Each well was then washed 3 times with wash buffer. 100 ul of TMB was then added to each well and closely observe during developing time. The reaction was stepped with 2N H2SO4 and absorbance was read at 450 nm.

[1] = Simulated Intestinal Fluid (SIF) Stability Assay; assay type: in vitro ADME, porcine; settings: pig, simulated intestinal fluid (SIF) with 1% porcine pancreatin, pH 6.5, Table 3-B; > means experiment was stopped at that time and half life was not reached; read-out: Stabilty SIF t1/2
Method in brief: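 Peptides (22 μM final) incubated at 37 °C in FASSIF (pH 6.5) with 1% porcine pancreatin; aliquots quenched at various times and analyzed by LC-MS/MS against internal standard. Half-life from first-order exponential decay fit of percent remaining.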

α4β7 = α4β7 (Homo sapiens, UniProt P13612+P26010); test: α4β7-MAdCAM Cell Adhesion Assay (RPMI 8866 human cells); assay type: cell-based; parameters: host or cells: RPMI 8866 human B lymphoblastoid cells; settings: Table 3-B, Potency (α4β7); range classes; read-out: α4β7 cell (Hu) IC50
α4β7, sequence (P13612 34-1032): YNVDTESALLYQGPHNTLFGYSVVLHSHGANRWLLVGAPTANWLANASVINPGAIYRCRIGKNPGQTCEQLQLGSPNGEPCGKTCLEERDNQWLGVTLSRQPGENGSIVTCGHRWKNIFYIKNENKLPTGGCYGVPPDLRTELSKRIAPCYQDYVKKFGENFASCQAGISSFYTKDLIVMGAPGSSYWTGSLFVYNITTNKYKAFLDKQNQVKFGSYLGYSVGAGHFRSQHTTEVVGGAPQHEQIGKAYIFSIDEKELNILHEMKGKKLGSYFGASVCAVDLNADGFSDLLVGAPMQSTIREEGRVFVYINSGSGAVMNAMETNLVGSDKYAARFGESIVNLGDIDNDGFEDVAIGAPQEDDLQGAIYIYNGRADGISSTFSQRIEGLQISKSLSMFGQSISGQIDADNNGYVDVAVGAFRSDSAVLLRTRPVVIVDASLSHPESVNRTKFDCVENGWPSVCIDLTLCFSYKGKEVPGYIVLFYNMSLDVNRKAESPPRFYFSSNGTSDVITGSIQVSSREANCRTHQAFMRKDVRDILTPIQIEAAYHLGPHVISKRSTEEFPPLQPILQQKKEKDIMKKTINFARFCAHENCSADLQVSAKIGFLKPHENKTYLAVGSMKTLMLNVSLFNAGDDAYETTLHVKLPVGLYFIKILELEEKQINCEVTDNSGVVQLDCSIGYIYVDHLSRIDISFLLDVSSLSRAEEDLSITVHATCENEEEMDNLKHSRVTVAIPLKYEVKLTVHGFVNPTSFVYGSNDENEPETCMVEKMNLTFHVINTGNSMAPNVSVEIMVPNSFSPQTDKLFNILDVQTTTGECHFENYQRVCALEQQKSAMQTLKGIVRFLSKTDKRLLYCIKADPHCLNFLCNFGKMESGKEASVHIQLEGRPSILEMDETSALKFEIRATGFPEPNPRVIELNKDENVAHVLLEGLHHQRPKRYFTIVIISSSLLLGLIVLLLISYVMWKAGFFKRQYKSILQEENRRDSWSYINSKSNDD
α4β7, sequence (P26010 20-798): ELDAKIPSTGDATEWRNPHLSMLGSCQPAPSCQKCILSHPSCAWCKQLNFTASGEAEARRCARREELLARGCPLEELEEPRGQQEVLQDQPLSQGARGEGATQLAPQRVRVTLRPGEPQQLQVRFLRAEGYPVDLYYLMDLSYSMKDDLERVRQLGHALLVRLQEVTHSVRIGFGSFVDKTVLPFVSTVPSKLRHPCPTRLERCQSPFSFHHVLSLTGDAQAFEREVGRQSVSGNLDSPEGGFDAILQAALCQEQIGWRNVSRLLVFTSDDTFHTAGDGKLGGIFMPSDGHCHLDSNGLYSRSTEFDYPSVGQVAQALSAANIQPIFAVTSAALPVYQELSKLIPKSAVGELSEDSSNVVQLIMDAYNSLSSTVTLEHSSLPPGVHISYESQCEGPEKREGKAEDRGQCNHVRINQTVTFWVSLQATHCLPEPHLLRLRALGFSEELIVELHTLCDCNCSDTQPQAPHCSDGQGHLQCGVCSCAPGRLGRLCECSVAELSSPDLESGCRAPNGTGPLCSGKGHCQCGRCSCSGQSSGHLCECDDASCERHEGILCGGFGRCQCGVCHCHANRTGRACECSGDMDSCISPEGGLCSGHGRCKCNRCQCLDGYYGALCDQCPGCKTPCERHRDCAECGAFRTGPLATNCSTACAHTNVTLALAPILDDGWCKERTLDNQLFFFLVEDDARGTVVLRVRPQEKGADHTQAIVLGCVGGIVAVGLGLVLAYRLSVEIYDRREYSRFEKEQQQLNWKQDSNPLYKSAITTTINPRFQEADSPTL
Method in brief: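 Washed RPMI 8866 cells (200,000/well) in DMEM with 0.1% BSA, 10 mM HEPES pH 7, 1 mM MnCl2 adhered to rh MAdCAM-1/Fc-coated wells with serially diluted peptides, 30-45 min at 37 °C. After three washes, bound cells quantified by MTT, A570, cell-free background subtracted for dose response.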

SMILES | IC50 (rh integrin α4β7) [nM] | IC50 (α4β1) [nM] | half-life at 22 μM [1] [min] | IC50 (α4β7) [nM]
CC(=O)N[C@@H]1C(=O)N(C)[C@@H](CCCNC(=N)N)C(=O)N[C@@H](CO)C(=O)N[C@@H](CC(=O)O)C(=O)N[C@@H]([C@@H](C)O)C(=O)N[C@@H](CC(C)C)C(=O)N[C@H](C(=O)N[C@@H](Cc2cccc3ccccc23)C(=O)N[C@H](CCC(=O)O)C(=O)N[C@H](CCCCNC(=O)COCC(=O)NCCCC[C@@H](NC(=O)[C@@H](CCC(=O)O)NC(=O)[C@H](Cc2cccc3ccccc23)NC(=O)[C@H]2NC(=O)[C@H](CC(C)C)NC(=O)[C@H]([C@@H](C)O)NC(=O)[C@H](CC(=O)O)NC(=O)[C@H](CO)NC(=O)[C@H](CCCNC(=N)N)N(C)C(=O)[C@@H](NC(C)=O)C(C)(C)SSC2(C)C)C(N)=O)C(N)=O)C(C)(C)SSC1(C)C [compound 32] (I: Ac-[Pen][NMeR]SDTL[Pen][1Nal][dE][dK]-NH2 / II: Ac-[Pen][NMeR]SDTL[Pen][1Nal][dE][dK]-NH2; disulfide I:1-I:7, II:1-II:7; linker I:10-II:10 via Diglycolyl) | < 10 | 100 to 500 | > 180 | 10 to 25
CC(=O)N[C@@H]1C(=O)N(C)[C@@H](CCCNC(=N)N)C(=O)N[C@@H](CO)C(=O)N[C@@H](CC(=O)O)C(=O)N[C@@H]([C@@H](C)O)C(=O)N[C@@H](CC(C)C)C(=O)N[C@H](C(=O)N[C@@H](Cc2ccc3ccccc3c2)C(=O)N[C@@H](CCC(=O)O)CC(=O)N[C@H](CCCCNC(=O)COCC(=O)NCCCC[C@@H](NC(=O)C[C@H](CCC(=O)O)NC(=O)[C@H](Cc2ccc3ccccc3c2)NC(=O)[C@H]2NC(=O)[C@H](CC(C)C)NC(=O)[C@H]([C@@H](C)O)NC(=O)[C@H](CC(=O)O)NC(=O)[C@H](CO)NC(=O)[C@H](CCCNC(=N)N)N(C)C(=O)[C@@H](NC(C)=O)C(C)(C)SSC2(C)C)C(N)=O)C(N)=O)C(C)(C)SSC1(C)C [compound 137] (I: Ac-[Pen][NMeR]SDTL[Pen][2Nal][β3hE][dK]-NH2 / II: Ac-[Pen][NMeR]SDTL[Pen][2Nal][β3hE][dK]-NH2; disulfide I:1-I:7, II:1-II:7; linker I:10-II:10 via Diglycolyl) | < 10 | 1000 to 10000 |  | < 10
CC(=O)N[C@@H]1C(=O)N(C)[C@@H](CCCNC(=N)N)C(=O)N[C@@H](CO)C(=O)N[C@@H](CC(=O)O)C(=O)N[C@@H]([C@@H](C)O)C(=O)N[C@@H](CC(C)C)C(=O)N[C@H](C(=O)N[C@@H](Cc2ccc(O)cc2)C(=O)N[C@@H](CCC(=O)O)C(=O)N[C@H](CCCCNC(=O)COCC(=O)NCCCC[C@@H](NC(=O)[C@H](CCC(=O)O)NC(=O)[C@H](Cc2ccc(O)cc2)NC(=O)[C@H]2NC(=O)[C@H](CC(C)C)NC(=O)[C@H]([C@@H](C)O)NC(=O)[C@H](CC(=O)O)NC(=O)[C@H](CO)NC(=O)[C@H](CCCNC(=N)N)N(C)C(=O)[C@@H](NC(C)=O)C(C)(C)SSC2(C)C)C(N)=O)C(N)=O)C(C)(C)SSC1(C)C [compound 22] (I: Ac-[Pen][NMeR]SDTL[Pen]YE[dK]-NH2 / II: Ac-[Pen][NMeR]SDTL[Pen]YE[dK]-NH2; disulfide I:1-I:7, II:1-II:7; linker I:10-II:10 via Diglycolyl) | < 10 | 100 to 500 | < 20 | < 10
CC(=O)N[C@@H]1C(=O)N(C)[C@@H](CCCNC(=N)N)C(=O)N[C@@H](CO)C(=O)N[C@@H](CC(=O)O)C(=O)N[C@@H]([C@@H](C)O)C(=O)N[C@@H](CC(C)C)C(=O)N[C@H](C(=O)N[C@@H](Cc2c[nH]c3ccccc23)C(=O)N[C@@H](CCC(=O)O)CC(=O)N(C)[C@@H](CCCCNC(=O)COCC(=O)NCCCC[C@@H](C(N)=O)N(C)C(=O)C[C@H](CCC(=O)O)NC(=O)[C@H](Cc2c[nH]c3ccccc23)NC(=O)[C@H]2NC(=O)[C@H](CC(C)C)NC(=O)[C@H]([C@@H](C)O)NC(=O)[C@H](CC(=O)O)NC(=O)[C@H](CO)NC(=O)[C@H](CCCNC(=N)N)N(C)C(=O)[C@@H](NC(C)=O)C(C)(C)SSC2(C)C)C(N)=O)C(C)(C)SSC1(C)C [compound 141] (I: Ac-[Pen][NMeR]SDTL[Pen]W[β3hE][NMeK]-NH2 / II: Ac-[Pen][NMeR]SDTL[Pen]W[β3hE][NMeK]-NH2; disulfide I:1-I:7, II:1-II:7; linker I:10-II:10 via Diglycolyl) | < 10 | 500 to 1000 |  | < 10
CC(=O)N[C@@H]1C(=O)N(C)[C@@H](CCCNC(=N)N)C(=O)N[C@@H](CO)C(=O)N[C@@H](CC(=O)O)C(=O)N[C@@H]([C@@H](C)O)C(=O)N[C@@H](CC(C)C)C(=O)N[C@H](C(=O)N[C@@H](Cc2ccc(-c3ccccc3)cc2)C(=O)N[C@@H](CCC(=O)O)C(=O)N[C@H](CCCCNC(=O)COCC(=O)NCCCC[C@@H](NC(=O)[C@H](CCC(=O)O)NC(=O)[C@H](Cc2ccc(-c3ccccc3)cc2)NC(=O)[C@H]2NC(=O)[C@H](CC(C)C)NC(=O)[C@H]([C@@H](C)O)NC(=O)[C@H](CC(=O)O)NC(=O)[C@H](CO)NC(=O)[C@H](CCCNC(=N)N)N(C)C(=O)[C@@H](NC(C)=O)C(C)(C)SSC2(C)C)C(N)=O)C(N)=O)C(C)(C)SSC1(C)C [compound 134] (I: Ac-[Pen][NMeR]SDTL[Pen][Bip]E[dK]-NH2 / II: Ac-[Pen][NMeR]SDTL[Pen][Bip]E[dK]-NH2; disulfide I:1-I:7, II:1-II:7; linker I:10-II:10 via Diglycolyl) | < 10 | 100 to 500 |  | < 10
CC(=O)N[C@@H]1C(=O)N(C)[C@@H](CCCNC(=N)N)C(=O)N[C@@H](CO)C(=O)N[C@@H](CC(=O)O)C(=O)N[C@@H]([C@@H](C)O)C(=O)N[C@@H](CC(C)C)C(=O)N[C@H](C(=O)N[C@@H](Cc2ccc3ccccc3c2)C(=O)N[C@@H](Cc2ccc(O)cc2)C(=O)N[C@H](CCCCNC(=O)COCC(=O)NCCCC[C@@H](NC(=O)[C@H](Cc2ccc(O)cc2)NC(=O)[C@H](Cc2ccc3ccccc3c2)NC(=O)[C@H]2NC(=O)[C@H](CC(C)C)NC(=O)[C@H]([C@@H](C)O)NC(=O)[C@H](CC(=O)O)NC(=O)[C@H](CO)NC(=O)[C@H](CCCNC(=N)N)N(C)C(=O)[C@@H](NC(C)=O)C(C)(C)SSC2(C)C)C(N)=O)C(N)=O)C(C)(C)SSC1(C)C [compound 23] (I: Ac-[Pen][NMeR]SDTL[Pen][2Nal]Y[dK]-NH2 / II: Ac-[Pen][NMeR]SDTL[Pen][2Nal]Y[dK]-NH2; disulfide I:1-I:7, II:1-II:7; linker I:10-II:10 via Diglycolyl) |  | 100 to 500 | < 20 | < 10
CC(=O)N[C@@H]1C(=O)N(C)[C@@H](CCCNC(=N)N)C(=O)N[C@@H](CO)C(=O)N[C@@H](CC(=O)O)C(=O)N[C@@H]([C@@H](C)O)C(=O)N[C@@H](CC(C)C)C(=O)N[C@H](C(=O)N[C@@H](Cc2cccc3ccccc23)C(=O)N[C@@H](CCC(=O)O)C(=O)N(C)[C@H](CCCCN)C(N)=O)C(C)(C)SSC1(C)C [compound 18] (Ac-[Pen][NMeR]SDTL[Pen][1Nal]E[dNMeK]-NH2; disulfide 1-7) | 10 to 25 | 500 to 1000 |  | 
